Reference: patent publication US6881420B2 (Teva Pharmaceutical Industries Ltd., priority 2000, dated 2005)
Blank lines part the entries; values can stand above or below the compound they belong to.

Tests used:
[1] = Relative oral, non-gastric retention bioavailability of irinotecan and SN-38 derived from literature; type: in vivo; details: human, blood (bloodstream); oral non-gastric retention relative to intravenous; read-out: Calculated Relative Bioavailabilty of Lactone [formula]
From the text: Quantity “A” is the total area under the bloodstream concentration curve over time.
ATotal=ALactone+ACarboxylate is the sum of the areas under the curve of lactone and carboxylate forms of the species.

topoisomerase I = molecular target: T1, topoisomerase I (Homo sapiens, UniProt P11387); details: cited from earlier work
T1 sequence (P11387 1-765): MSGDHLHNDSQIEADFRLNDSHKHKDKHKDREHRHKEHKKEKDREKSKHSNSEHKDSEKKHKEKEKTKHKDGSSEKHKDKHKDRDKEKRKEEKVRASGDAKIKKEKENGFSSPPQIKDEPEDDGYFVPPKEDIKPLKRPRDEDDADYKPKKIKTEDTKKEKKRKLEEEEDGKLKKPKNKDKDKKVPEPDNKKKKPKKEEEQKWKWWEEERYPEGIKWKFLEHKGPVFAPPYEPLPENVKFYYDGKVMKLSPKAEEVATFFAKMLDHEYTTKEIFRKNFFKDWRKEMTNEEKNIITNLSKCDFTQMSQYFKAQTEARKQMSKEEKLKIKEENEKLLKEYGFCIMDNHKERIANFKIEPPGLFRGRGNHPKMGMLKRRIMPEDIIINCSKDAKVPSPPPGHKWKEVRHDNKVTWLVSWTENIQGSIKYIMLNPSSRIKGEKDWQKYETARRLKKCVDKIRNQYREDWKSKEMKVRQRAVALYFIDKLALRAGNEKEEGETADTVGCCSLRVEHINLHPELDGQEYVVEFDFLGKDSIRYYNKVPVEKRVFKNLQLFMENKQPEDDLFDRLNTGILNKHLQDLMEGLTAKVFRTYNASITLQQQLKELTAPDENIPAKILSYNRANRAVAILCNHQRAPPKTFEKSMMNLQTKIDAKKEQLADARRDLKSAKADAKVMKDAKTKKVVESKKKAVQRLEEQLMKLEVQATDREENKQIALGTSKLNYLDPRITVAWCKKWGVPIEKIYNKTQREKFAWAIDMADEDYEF

[2] = cited from earlier work
[3] = Systemic delivery of irinotecan and SN-38 after GRDS tablet versus i.v. in the beagle dog; details: irinotecan in gastric retention dosage form, oral
Method: A plot of plasma concentration against time allows calculation of the area under the curves and the relative bioavailability of the various forms of the drug.
Prior to the study, an adequate amount (5-10 ml) of whole blood is drawn from each dog. The blood is used to prepare the standard calibration reference curve. At the study, the foreleg (right or left, as deemed appropriate by the animal handler), is shaved using an electric shaver, and the area cleansed with a chlorhexidine swab. A permanent in-dwelling polyethylene catheter is inserted using a 23 gauge needle in the cephalic vein in the foreleg of each dog and taped in place to allow for periodic blood sampling over 12 hours. […]
At each time point, 2.0 ml blood is removed by syringe and then placed into a pre-labeled heparinized test tube. […] The concentration of the components are measured using literature HPLC methods.
The dogs are fasted overnight for a period of at least 12 hours at which time they receive a single mixed meal of solid food and liquid nutrients. 250 grams of bite-size commercial dog chow (Bonzo Feed®) are measured and placed in a feeding dish. […] The food remaining in the dish is measured and the difference from the original 250 grams is recorded as the amount of food consumed. […]
Two hours after the meal, the dog is dosed with the test tablet. […] The methanol samples are analyzed by HPLC. […]

bioavailability [1]: 12%
SMILES: CCc1c2c(nc3ccc(OC(=O)N4CCC(N5CCCCC5)CC4)cc13)-c1cc3c(c(=O)n1C2)COC(=O)[C@]3(O)CC [Irinotecan]

SMILES: CCc1c2c(nc3ccc(O)cc13)-c1cc3c(c(=O)n1C2)COC(=O)[C@]3(O)CC [SN-38, 7-ethyl-10-hydroxycamptothecin]
Potency as inhibitor of topoisomerase I relative to irinotecan (topoisomerase I): approximately a thousand times more potent | [formula] ratio of lactone AUC to total AUC, intravenous ([2]; irinotecan given intravenously): 0.50 | [formula] overall delivery to the bloodstream, total AUC oral relative to intravenous ([2]; irinotecan given orally, conventional non-gastric retention, vs IV, lactone + carboxylate): 0.16 | [formula] ratio absorbed in the lactone form (lactone AUC / total AUC), oral ([2]; irinotecan given orally, conventional non-gastric retention): 0.73 | Ratio absorbed in the lactone form [formula] [3]: 0.9 | Overall delivery to the bloodstream [formula], gastric retention relative to intravenous ([3]; vs IV): 0.4
